Tests used:
[1] = test system: LX-2 hepatic stellate cells; test: TGFβ1-induced fibrogenic gene expression (Col1a1, Acta2, Timp2) in LX-2 cells, qRT-PCR; assay type: cell-based; design: key to Col1a1 gene expression, Mean: relative expression normalized to β-actin by ΔΔCt method; conditions: for Col1a1 gene expression, Mean: TGFβ1 Yes
FATZO mice = test: FATZO mouse NASH model (Example 15): liver histology (NAS, fibrosis score, Sirius Red, Oil Red O); assay type: in vivo; conditions: FATZO mice on WDF, 4 weeks
Description: NASH was induced in 60 male FATZO mice by a western diet (Research Diet # D12079B; fat 40% kcal, protein 17% kcal, carbohydrate 43% kcal) supplemented with 5% fructose in the drinking water (WDF) during a 16 week induction phase. Diets and water were available ad libitum. Littermate control male FATZO mice fed with a control diet (n=6, Purina #5008; fat 17% kcal, protein 27% kcal, carbohydrate 56% kcal) and sterile water were set up for control purpose. Mice were housed in plastic cages with microisolator. Sterilized bedding was replaced once a week. Mice were housed three per cage and maintained on a twelve hour light cycle throughout study duration. Room temperature was monitored daily and maintained at 22-25° C. Body weight was recorded every week during the induction phase. […]
[…], […]+G, LRQNAC, OCA and Vehicle were administered by oral gavage at a volume of 10 mL/kg throughout the study. Dosages were calculated by daily body weight. […]
The livers were evaluated using the NASH liver criteria for scoring. In this mouse study, one cross section of liver for each case was analyzed with the NASH score system. […] The NAS can range from 0 to 8 and is calculated by the sum of scores of steatosis (0-3), lobular inflammation (0-3) and hepatocyte ballooning (0-2) from H&E stained sections. Fibrosis was scored (0-4) from picrosirius red stained slides. […]

STAM™ mice = test: STAM mouse NASH model (Example 6): activated hepatic stellate cells, α-smooth muscle actin staining; assay type: in vivo; conditions: individual animals
Procedure: Amino Acid Composition A-1 and Obeticholic acid (6α-ethyl-chenodeoxycholic acid; “OCA”) were tested for their ability to treat NASH in the STAM™ model (Stelic Institute & Co., Tokyo, Japan; Saito K. et al., 2015 Sci Rep 5:12466). Two additional groups of normal C57BL/6 mice fed standard chow and vehicle treated STAM™ mice were included as controls. All animals receiving treatment or vehicle were treated starting at 6 weeks until 9 weeks of age. Compounds were administered via oral gavage, with a dose volume of 10 ml/kg. Amino Acid Composition A-1 was administered twice daily at a dose of 1500 mg/kg, and OCA was administered once daily at a dose of 30 mg/kg.
STAM™ is a model for non-alcoholic steatohepatitis (NASH) and hepatocellular carcinoma (HCC), developed by SMC Laboratories, Inc. and created by the combination of chemical and dietary interventions using C57BL/6 mice (Saito K. et al., 2015 Sci Rep 5:12466). Mice are treated with a low dose of streptozotocin at birth and fed a high fat diet starting at 4 weeks. Evidence of fatty liver is present by 5 weeks, followed by NASH by 7 weeks and fibrosis by 9 weeks. […]
Liver sections of all mice were stained for the marker α-smooth muscle actin (αSMA) to identify activated hepatic stellate cells. Images were quantified using the percent of positively stained area was used as a measure of stellate cell activation. […]

[2] = individual amino acid at 1X HMDB concentration
[3] = individual amino acid at 50X HMDB concentration

Row | Structure (SMILES) | Col1a1 gene expression, Mean [1, 2] | Col1a1 gene expression, Mean [1, 3] | Col1a1 expression of individual amino acids, in words ([1]; individual amino acid at 50× HMDB derived concentration) | NAFLD activity score (NAS) compared to vehicle, in words (FATZO mice) | Activated hepatic stellate cells (mean positively stained area, α-smooth muscle actin): raw data (STAM™ mice)
1 | N=C(N)NCCC[C@H](N)C(=O)O [ARG] | 1.620 | 1.970 | – | – | –
2 | N[C@@H](CS)C(=O)O [CYS] | 2.491 | 1.695 | – | – | –
3 | N[C@@H](CS)C(=O)O [Cysteine, L-Cysteine] | – | – | significant decrease | – | –
4 | CC[C@H]1[C@@H](O)[C@@H]2[C@H](CC[C@]3(C)[C@@H]([C@H](C)CCC(=O)O)CC[C@@H]23)[C@@]2(C)CC[C@@H](O)C[C@@H]12 [OCA, 6α-ethyl-chenodeoxycholic acid] | – | – | – | no significant effect | 1.5
5 | CC(C)[C@H](N)C(=O)O [VAL] | 2.093 | 2.203 | – | – | –
6 | NC(=O)CC[C@H](N)C(=O)O [GLN] | 2.340 | 2.194 | – | – | –
7 | CC(C)C[C@H](N)C(=O)O [LEU] | 1.901 | 2.372 | – | – | –

— patent publication US20180169045A1, “AMINO ACID COMPOSITIONS AND METHODS FOR THE TREATMENT OF LIVER DISEASES” (AXCELLA HEALTH INC., priority 2016, published 2018)
